Where two headings read alike, the source gives them in different places.

Holding throughout (format): in vivo
Experiment [1] relates to Scirpus juncoides ROXB. (Japanese bulrush). Kind of experiment: In-water applied herbicidal activity in transplanted paddy rice (Example 17). Conditions: for GR50 / GR80 / GR90: SCPJU, in-water applied, probit analysis; for GR50: 50% growth reduction; for GR80: 80% growth reduction; for GR90: 90% growth reduction. The essentials: (§1)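 Ester forms of test compounds, in acetone diluted with aqueous Agri-dex (final 1.25% v/v crop oil concentrate), were injected into the flood water of paddy pots holding weeds or rice at the 2nd–3rd leaf stage in mud (pH ~7.3–7.8). Visual injury versus untreated plants was scored 0–100% after 3 weeks in greenhouse (~29/26 °C). GR50/GR80 were derived by probit analysis.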

The test system of experiment [2] is Fimbristylis miliacea (L.) VAHL (globe fringerush). The description is as above. Particulars: for Visual Injury (%) FIMMI: rice cropping systems, in-water applied (paddy), 35 g ae/ha, 21 DAA, may represent multiple trials; for GR50 / GR80 / GR90: FIMMI, in-water applied, probit analysis; for GR50: 50% growth reduction; for GR80: 80% growth reduction; for GR90: 90% growth reduction. The method in brief:
as §1

Experiment [3] has as its system Echinochloa colonum (L.) LINK (junglerice). Kind of experiment: Postemergence foliar-applied herbicidal activity in direct seeded rice (Example 16). Conditions: for GR50 / GR80 / GR90: ECHCO, probit analysis; for GR50: 50% growth reduction; for GR80: 80% growth reduction; for GR90: 90% growth reduction; for pest or weed control at 8.75 g/ha: Echinochloa colona, post-emergence, 504 h, rice cropping systems, 8.75 g ae/ha, 21 DAA, may represent multiple trials, read-out: Visual Injury (%) ECHCO. The essentials: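 Greenhouse plants at 2nd–3rd true leaf stage (10–17 d, ~29/26 °C, 14-h photoperiod) sprayed postemergence with ester forms in acetone–DMSO plus 1.25% crop oil concentrate at 187 L/ha. Visual injury scored 0–100% versus untreated plants after 3 weeks; GR50/GR80 derived by probit analysis.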

Take `COC(=O)c1nc(-c2ccc(Cl)c(OC)c2F)nc(N)c1OC` [Compound F, methyl 6-amino-2-(4-chloro-2-fluoro-3-methoxyphenyl)-5-methoxypyrimidine-4-carboxylate, reference compound]: in experiment [1] (Schoenoplectiella juncoides, 504 h, rice cropping systems, in-water applied (paddy), 35 g ae/ha, 21 DAA, may represent multiple trials, read-out: Visual Injury (%) SCPJU), the pest or weed control at 35 g/ha was found to be 50%.
As for `COC(=O)c1nc(-c2ccc(Cl)c(OC)c2F)cc(N)c1Cl` [Compound G, methyl 4-amino-3-chloro-6-(4-chloro-2-fluoro-3-methoxyphenyl)picolinate, reference compound], the “Visual Injury (%) FIMMI” value in experiment [2] was 61%.
In experiment [3], `COC(=O)c1nc(-c2ccc(Cl)c(OC)c2F)c(F)c(N)c1Cl` [E, methyl 4-amino-3-chloro-6-(4-chloro-2-fluoro-3-methoxyphenyl)-5-fluoropicolinate, reference compound] had a GR50 below 4.38 g ae/ha, a GR80 of 14.6 g ae/ha and a GR90 of 55.6 g ae/ha. In experiment [2], the GR50 was 14.4 g ae/ha, the GR80 came out at 21.7 g ae/ha and the GR90 was 26.8 g ae/ha. In experiment [1], this compound had a GR50 of 9.6 g ae/ha, a GR80 of 20.0 g ae/ha and a GR90 of 29.5 g ae/ha. For the same compound, the pest or weed control at 17.5 g/ha in experiment [1] (Schoenoplectiella juncoides, 504 h, rice cropping systems, in-water applied (paddy), 17.5 g ae/ha, 21 DAA, may represent multiple trials, read-out: Visual Injury (%) SCPJU) was 75%.
With `Nc1c(F)c(-c2ccc(C3CC3)cc2)nc(C(=O)OCc2ccccc2)c1Cl` [Compound 42, benzyl 4-amino-3-chloro-6-(4-cyclopropylphenyl)-5-fluoropicolinate], the pest or weed control at 8.75 g/ha in experiment [3] amounted to 85%.
Same read-out and setting: the figure for `COC(=O)c1nc(-c2ccc(C3CC3)cc2)c(F)c(N)c1Cl` [Compound B, methyl 4-amino-3-chloro-6-(4-cyclopropylphenyl)-5-fluoropicolinate] is 50%.
Take `COc1c(Cl)ccc(-c2nc(C(=O)OCc3ccccc3)c(Cl)c(N)c2F)c1F` [Compound 1, benzyl 4-amino-3-chloro-6-(4-chloro-2-fluoro-3-methoxyphenyl)-5-fluoropicolinate]: in experiment [3], the GR50 was found to be 2.4 g ae/ha, the GR80 is listed as 7.8 g ae/ha and the GR90 worked out at 14.4 g ae/ha. In experiment [2], this compound had a GR50 below 17.5 g ae/ha, a GR80 below 17.5 g ae/ha and a GR90 below 17.5 g ae/ha. In experiment [1], the GR50 is below 8.75 g ae/ha, the GR80 came to 4.4 g ae/ha and the GR90 is listed as 10.8 g ae/ha. Also, the pest or weed control at 17.5 g/ha in experiment [1] (Schoenoplectiella juncoides, 504 h, read-out: Visual Injury (%) SCPJU) came out at 99%.
As for `COc1c(Cl)ccc(-c2cc(N)c(Cl)c(C(=O)OCc3ccccc3)n2)c1F` [Compound 39], the “Visual Injury (%) FIMMI” value in experiment [2] came to 100%.

The values above are taken from patent US9169217B2, “Arylalkyl esters of 4-amino-6-(substituted phenyl)-picolinates and 6-amino-2-(substituted phenyl)-pyrimidinecarboxylates and their use as selective herbicides for crops” (Dow AgroSciences LLC, priority 2011, dated 2015).
